The structures appear in SMILES notation.

T1 sequence (P08238 whole entry): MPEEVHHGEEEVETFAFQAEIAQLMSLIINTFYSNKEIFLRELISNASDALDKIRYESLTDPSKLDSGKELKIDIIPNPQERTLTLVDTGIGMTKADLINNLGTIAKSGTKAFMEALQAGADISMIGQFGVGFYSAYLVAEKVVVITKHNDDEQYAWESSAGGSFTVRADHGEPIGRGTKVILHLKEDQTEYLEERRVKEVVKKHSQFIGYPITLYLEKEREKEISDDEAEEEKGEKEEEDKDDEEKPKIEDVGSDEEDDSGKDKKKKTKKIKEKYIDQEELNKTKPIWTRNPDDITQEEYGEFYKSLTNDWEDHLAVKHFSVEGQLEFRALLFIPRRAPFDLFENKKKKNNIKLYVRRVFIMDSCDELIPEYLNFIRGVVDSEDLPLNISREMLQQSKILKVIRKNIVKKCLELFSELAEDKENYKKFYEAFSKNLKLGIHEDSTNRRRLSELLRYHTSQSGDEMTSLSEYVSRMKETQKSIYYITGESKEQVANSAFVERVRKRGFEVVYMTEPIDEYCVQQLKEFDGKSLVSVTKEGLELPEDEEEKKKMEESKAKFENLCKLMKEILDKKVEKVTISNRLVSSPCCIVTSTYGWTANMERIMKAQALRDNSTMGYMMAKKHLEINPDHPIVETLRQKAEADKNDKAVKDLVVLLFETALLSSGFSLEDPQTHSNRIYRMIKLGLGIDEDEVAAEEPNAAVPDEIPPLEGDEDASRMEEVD

One assay has as its target T1, Human full-length Hsp90 (Homo sapiens, UniProt P08238).
T1 construct: E. coli expressed human full-length HSP90 protein, purified >95%; made in house; host or cells: E. coli
Put plainly: Fluorescence polarization assay (competitive binding to HSP90, probe RBT0045864-FAM).
Settings: not given
On the procedure: Fluorescence Polarization Assay
Fluorescence polarization {also known as fluorescence anisotropy} measures the rotation of a fluorescing species in solution, where the larger molecule the more polarized the fluorescence emission. When the fluorophore is excited with polarized light, the emitted light is also polarized. The molecular size is proportional to the polarization of the fluorescence emission.
The fluoroscein-labelled probe—RBT0045864-FAM—
Test compound is added to the assay plate, left to equilibrate and the anisotropy measured again. Any change in anisotropy is due to competitive binding of compound to HSP90, thereby releasing probe.
Stored at room temperature. • 3) BSA (bovine serum albumen) 10 mg/ml (New England Biolabs #B9001S) • 4) 20 mM probe in 100% DMSO stock concentration. Stored in the dark at RT. Working concentration is 200 nM diluted in AR water and stored at 4° C. […] Protocol • 1) Add 100 μl 1× buffer to wells 11A and 12A (=FP BLNK) • 2) Prepare assay mix—all reagents are kept on ice with a lid on the bucket as the probe is light-sensitive.
This gives 2.5 mM {50×} stock cpd—assuming cpds 20 mM. • 4) Repeat for wells A2 to A10. Control in columns 11 and 12. • 5) Transfer 5 μl from row A to row B—not column 12. Mix well. • 6) Transfer 5 μl from row B to row C. […] Add 2 μl of 100 mM standard cpd to wells B12-H12 {is positive control} • 13) The Z′ factor is calculated from zero controls and positive wells.
Background: In fluorescence polarisation assays a small probe gives low polarisation when free and higher when bound to something large.
One may read the IC50 as the midpoint of a concentration-inhibition curve. Take `CCNC(=O)c1cc2c(-c3ccc(C#N)cc3C)nc(N)nc2s1` [Example 84]: the IC50 is under 10 µM.
The same measure, in the same setting: to `CCNC(=O)c1cc2c(-c3ccc(Cl)cc3)nc(N)nc2s1` [Example 173] belongs under 10 µM.
Still for that read-out and setting: to `CCNC(=O)c1cc2c(-c3ccc(C)cc3C)nc(N)nc2s1` [Example 80] belongs under 10 µM; to `CCNC(=O)c1cc2c(-c3ccc(Cl)cc3Cl)nc(N)nc2s1` [Example 98], under 10 µM.
With `CCNC(=O)c1cc2c(-c3cc(OCCCN(C)C)c(Cl)cc3Cl)nc(N)nc2s1` [Example 255], the IC50 is under 10 µM.
`CCNC(=O)c1cc2c(-c3cc(OCC#N)c(Cl)cc3Cl)nc(N)nc2s1` [Example 270] gave an IC50 of under 10 µM.

Staying with this assay, now noted: fluorescence polarization assay, activity range; read-out: Hsp90 FP IC50.
In the case of `CCOC(=O)c1cc2c(C(=O)c3ccc(Cl)cc3)nc(N)nc2s1` [Example 295, 2-Amino-4-(4-chloro-benzoyl)-thieno[2,3-d]pyrimidine-6-carboxylic acid ethyl ester], the IC50 is under 10 µM.
The same measure, in the same setting: to `CCNC(=O)c1cc2c(-c3cccc(O)c3)nc(N)nc2s1` [Example 244] belongs under 10 µM.
Still for that read-out and setting: to `CCN(CC)CCOc1cc(-c2nc(N)nc3sc(C(=O)NC(C)C)cc23)c(Cl)cc1Cl` [Example 237, 2-Amino-4-[2,4-dichloro-5-(2-diethylamino-ethoxy)-phenyl]-thieno[2,3-d]pyrimidine-6-carboxylic acid isopropyl amide] belongs under 10 µM; to `CS(=O)(=O)c1ccc(CNC(=O)c2cc3c(-c4ccc(Cl)cc4Cl)nc(N)nc3s2)cc1` [Example 117], under 10 µM.
Same read-out and setting: with `CCOC(=O)c1cc2c(C(=O)c3cccc(Cl)c3)nc(N)nc2s1` [Example 304] the figure was under 10 µM; with `CN(C)CCCNC(=O)c1cc2c(-c3ccccc3)nc(N)nc2s1` [Example 45], over 10 µM; with `CCN1CCCC1CNC(=O)c1cc2c(-c3ccc(Cl)cc3Cl)nc(N)nc2s1` (stereo not shown) [Example 129], under 10 µM.
Turning to `CCOC(=O)c1cc2c(C(C#N)c3ccccc3)nc(N)nc2s1` (stereo not shown) [Example 317], the concentration for half-maximal inhibition (IC50) is under 10 µM.
With `CN(c1ccccc1)c1nc(N)nc2sc(C(N)=O)cc12` [Example 63], the IC50 is over 10 µM.
Same read-out and setting: with `COc1ccc(NC(=O)c2cc3c(-c4ccc(Cl)cc4Cl)nc(N)nc3s2)cc1` [Example 113] the figure was under 10 µM; with `CCOC(=O)c1cc2c(-c3cc4ccccc4o3)nc(N)nc2s1` [Example 13], over 10 µM; with `Nc1nc(-c2ccccc2)c2cc(C(=O)N3CCOCC3)sc2n1` [Example 70], over 10 µM.
On the same count and under the same terms, to `Nc1nc(-c2ccc(Cl)cc2Cl)c2cc(C(=O)NCC3CCCO3)sc2n1` (stereo not shown) [Example 132] belongs under 10 µM; to `CCNC(=O)c1cc2c(-c3cc(OCCN4CCOCC4)c(Cl)cc3Cl)nc(N)nc2s1` [Example 236, 2-Amino-4-[2,4-dichloro-5-(2-morpholin-4-yl-ethoxy)-phenyl]-thieno[2,3-d]pyrimidine-6-carboxylic acid ethyl amide], under 10 µM.
Consider `CCC/C=C/c1nc(N)nc2sc(C(=O)OCC)cc12` [Example 292], for which the IC50 was over 10 µM.
As for `Nc1nc(-c2ccccc2)c2cc(C(=O)NCCCO)sc2n1` [Example 53], the IC50 was under 10 µM.
Take `CCNC(=O)c1cc2c(-c3cc(CNCCC(N)=O)ccc3C)nc(N)nc2s1` [Example 208]: the IC50 is under 10 µM.
On the same count and under the same terms, to `Cc1ccc(-c2nc(N)nc3sc(C(=O)NCCO)cc23)c(C)c1` [Example 82] belongs under 10 µM; to `Nc1nc(-c2ccccc2)c2cc(C(=O)NCCc3cnc[nH]3)sc2n1` [Example 57], under 10 µM.
In the case of `NC(=O)c1ccc(NC(=O)c2cc3c(-c4ccc(Cl)cc4Cl)nc(N)nc3s2)cc1` [Example 110], the IC50 is under 10 µM.
On the same count and under the same terms, with `CCOC(=O)c1cc2c(-c3c(C)cc(C)cc3C)nc(N)nc2s1` [Example 77] the figure was under 10 µM.
As for `CCNC(=O)c1cc2c(-c3cc(CNCc4cccs4)c(C)cc3C)nc(N)nc2s1` [Example 233], the IC50 is under 10 µM.
Take `Cc1ccc(-c2nc(N)nc3sc(C(=O)NCCCO)cc23)c(C)c1` [Example 85]: the IC50 is under 10 µM.
`CCOC(=O)c1cc2c(-c3c(C)cccc3C)nc(N)nc2s1` [Example 6]: the IC50 is under 10 µM.
The same measure, in the same setting: to `CCOC(=O)c1cc2c(-c3ccc(CO)cc3)nc(N)nc2s1` [Example 35] belongs under 10 µM; to `CNC(=O)c1cc2c(Oc3ccccc3)nc(N)nc2s1` [Example 27], over 10 µM; to `Cc1ccc(-c2nc(N)nc3sc(C(=O)NCC(N)=O)cc23)c(C)c1` [Example 95], under 10 µM.
As for `Nc1nc(-c2ccc(Cl)cc2Cl)c2cc(C(=O)NCc3cccnc3)sc2n1` [Example 123], the IC50 is under 10 µM.
As for `COC(=O)c1cc2c(N(C)Cc3ccccc3)nc(N)nc2s1` [Example 23], the IC50 is over 10 µM.
Same read-out and setting: to `CCOC(=O)c1cc2c(Nc3ccccc3)nc(N)nc2s1` [Example 28] belongs over 10 µM.
Same read-out and setting: to `Nc1nc(-c2ccc(Cl)cc2Cl)c2cc(C(=O)NC(CO)CO)sc2n1` [Example 127] belongs under 10 µM; to `CCOC(=O)c1sc2nc(N)nc(-c3ccccc3)c2c1N` [Example 74, 2,5-Diamino-4-phenyl-thieno[2,3-d]pyrimidine-6-carboxylic acid ethyl ester], over 10 µM; to `CCOC(=O)c1cc2c(-c3ccc(CN4CCOCC4)cc3)nc(N)nc2s1` [Example 41], over 10 µM.
Still for that read-out and setting: to `CCOC(=O)c1cc2c(-c3cncc4ccccc34)nc(N)nc2s1` [Example 293] belongs under 10 µM.
As to `CCNCc1ccc(C)c(-c2nc(N)nc3sc(C(=O)NCC)cc23)c1` [Example 206], the IC50 was under 10 µM.
On the same count and under the same terms, with `CCOC(=O)c1cc2c(NC(c3ccccc3)c3ccccc3)nc(N)nc2s1` [Example 25] the figure was over 10 µM.
For the compound `CCOC(=O)c1cc2c(C(=O)c3cccc(F)c3)nc(N)nc2s1` [Example 303], the IC50 is under 10 µM.
Turning to `CN(C)CCNC(=O)c1cc2c(-c3ccccc3)nc(N)nc2s1` [Example 44], the IC50 was under 10 µM.
On the same count and under the same terms, with `Nc1nc(-c2ccc(Cl)cc2Cl)c2cc(C(=O)Nc3nccs3)sc2n1` [Example 142] the figure was under 10 µM; with `C=Cc1ccc(-c2nc(N)nc3sc(C(=O)NCC)cc23)c(C)c1` [Example 171], under 10 µM; with `CCNC(=O)c1cc2c(-c3cc(CNCc4ccco4)ccc3C)nc(N)nc2s1` [Example 210], under 10 µM.
On the same count and under the same terms, with `CCOC(=O)c1cc2c(/C=C/c3ccc(Cl)cc3)nc(N)nc2s1` [Example 281] the figure was under 10 µM; with `CCNC(=O)c1cc2c(-c3ccc(CC)cc3Cl)nc(N)nc2s1` [Example 177], under 10 µM.
`CCNC(=O)c1cc2c(-c3cc(OCC4CCCO4)c(Cl)cc3Cl)nc(N)nc2s1` (stereo not shown) [Example 262]: the IC50 was under 10 µM.
With `CCN(CC)CCOc1cc(-c2nc(N)nc3sc(C(=O)NCCO)cc23)c(Cl)cc1Cl` [Example 258], the IC50 was under 10 µM.
Still for that read-out and setting: to `CNC(=O)c1cc2c(Nc3ccccc3)nc(N)nc2s1` [Example 64] belongs over 10 µM; to `Nc1nc(-c2ccc(Cl)cc2Cl)c2cc(C(=O)NCc3ccco3)sc2n1` [Example 125], under 10 µM; to `CCOC(=O)c1cc2c(-c3cccc(CN4CCCC4)c3)nc(N)nc2s1` [Example 7], over 10 µM.
Still for that read-out and setting: to `CCOC(=O)c1cc2c(C(=O)c3ccc(Cl)c(F)c3)nc(N)nc2s1` [Example 313] belongs under 10 µM; to `Nc1nc(-c2ccccc2)c2cc(C(=O)NCCc3ccccc3)sc2n1` [Example 49], over 10 µM; to `Nc1nc(-c2ccc(Cl)cc2Cl)c2cc(C(=O)NCc3ccc(Cl)cc3)sc2n1` [Example 121], under 10 µM.
Consider `CCOC(=O)c1cc2c(NCCCN3CCCC3=O)nc(N)nc2s1` [Example 31], for which the IC50 was over 10 µM.
On the same count and under the same terms, to `CCOC(=O)c1cc2c(-c3ccccc3)nc(N)nc2s1` [Example 1, 2-Amino-4-phenyl-thieno[2,3-d]pyrimidine-6-carboxylic acid ethyl ester] belongs under 10 µM; to `CN1CCC(NC(=O)c2cc3c(-c4ccc(Cl)cc4Cl)nc(N)nc3s2)CC1` [Example 137], under 10 µM.
Regarding `CCNC(=O)c1cc2c(-c3cc(OCCNC4CCCCC4)c(Cl)cc3Cl)nc(N)nc2s1` [Example 245], the IC50 was under 10 µM.
The same measure, in the same setting: to `NC(=O)[C@H](Cc1cnc[nH]1)NC(=O)c1cc2c(-c3ccc(Cl)cc3Cl)nc(N)nc2s1` [Example 164] belongs under 10 µM; to `CCOC(=O)c1cc2c(Oc3ccccc3)nc(N)nc2s1` [Example 19], over 10 µM.
Same read-out and setting: to `CCOC(=O)c1cc2c(C(=O)c3ccc4c(c3)OCO4)nc(N)nc2s1` [Example 298] belongs under 10 µM.
As for `CCCCNC(=O)c1cc2c(-c3ccccc3)nc(N)nc2s1` [Example 48], the IC50 was over 10 µM.
On the same count and under the same terms, to `Cc1c(C(N)=O)sc2nc(N)nc(-c3ccccc3)c12` [Example 75, 2-Amino-5-methyl-4-phenyl-thieno[2,3-d]pyrimidine-6-carboxylic acid amide] belongs over 10 µM; to `C[C@H](NC(=O)c1cc2c(-c3ccc(Cl)cc3Cl)nc(N)nc2s1)C(N)=O` [Example 160], under 10 µM.

For the origin of these results see patent US8642594B2, “Substituted thieno[2,3-d]pyrimidines as HSP90 inhibitors” (Vernalis (R&D) Limited, priority 2003, dated 2014).
